Assay results as given in the CheMixHub ionic liquid set.
± gives the uncertainty stated by the source.

Assay: xn = mol fraction of the nth substance listed

CC(C)[C@H](N)C(=O)O + CCCCCCCCCCCCCCCC[n+]1ccccc1.O=C([O-])C(O)c1ccccc1 + O
Details	electrical conductivity [S/m]
313.15 K, 101 kPa, x2 = 0, x1 = 0.001799	0.0016 ± 0.0013

CC(C)[C@H](N)C(=O)O + CCCCCCCCCCCCCCCC[n+]1ccccc1.O=C([O-])c1ccccc1O + O
Details	electrical conductivity [S/m]
313.15 K, 101 kPa, x1 = 0.001799, x2 = 0	0.00161 ± 9.7e-05

C[C@@H](O)[C@H](N)C(=O)O + CCCCCCCCCCCCCCCC[n+]1ccccc1.[Cl-] + O
308.15 K, 101 kPa, x2 = 0
Details	electrical conductivity [S/m]
x1 = 2.018e-05	0.000218 ± 2e-06
x1 = 0.0002	7.7e-05 ± 1e-06
x1 = 0.0009182	0.000219 ± 2e-06

CC(C)[C@H](N)C(=O)O + CCCCCCCCCCCCCC[n+]1ccccc1.O=C([O-])C(O)c1ccccc1 + O
Details	electrical conductivity [S/m]
313.15 K, 101 kPa, x2 = 0, x1 = 0.001799	0.00161 ± 0.00067

CC(=O)[O-].CCCC[N+](CCCC)(CCCC)CCCC + CCCCCCCCCCCCOS(=O)(=O)[O-].[Na+] + O
viscosity [mPa·s], 100 kPa, x1 = 0.0001802
Details	x2 = 1.81e-06	x2 = 3.61e-06	x2 = 5.42e-06	x2 = 7.23e-06	x2 = 9.04e-06	x2 = 1.084e-05	x2 = 1.265e-05	x2 = 1.446e-05	x2 = 1.626e-05	x2 = 1.807e-05
293.15 K	0.997 ± 0.029	1 ± 0.029	1.004 ± 0.029	1.004 ± 0.029	1.006 ± 0.029	1.007 ± 0.029	1.007 ± 0.029	1.008 ± 0.029	1.008 ± 0.029	1.008 ± 0.029
298.15 K	0.89 ± 0.028	0.893 ± 0.028	0.894 ± 0.028	0.894 ± 0.028	0.898 ± 0.028	0.901 ± 0.028	0.902 ± 0.028	0.903 ± 0.028	0.904 ± 0.028	0.904 ± 0.028
303.15 K	0.756 ± 0.028	0.758 ± 0.028	0.76 ± 0.028	0.763 ± 0.028	0.764 ± 0.028	0.765 ± 0.028	0.766 ± 0.028	0.768 ± 0.028	0.768 ± 0.028	0.769 ± 0.028
308.15 K	0.679 ± 0.027	0.68 ± 0.027	0.681 ± 0.027	0.683 ± 0.027	0.684 ± 0.027	0.684 ± 0.027	0.686 ± 0.027	0.687 ± 0.027	0.688 ± 0.027	0.688 ± 0.027
313.15 K	0.605 ± 0.027	0.606 ± 0.027	0.606 ± 0.027	0.608 ± 0.027	0.609 ± 0.027	0.609 ± 0.027	0.611 ± 0.027	0.612 ± 0.027	0.612 ± 0.027	0.613 ± 0.027
318.15 K	0.569 ± 0.027	0.572 ± 0.027	0.572 ± 0.027	0.574 ± 0.027	0.575 ± 0.027	0.575 ± 0.027	0.577 ± 0.027	0.578 ± 0.027	0.578 ± 0.027	0.579 ± 0.027
